Tests used:
[1] = in vivo
Excerpt: (§1) The participants went to the visits A, B and C in a randomized order.
(§2) The experimental setup allowed to directly determine the physiological effects of ingesting βHB enclosed in microbeads compared to standard non-enclosed βHB. To distinguish the effects of βHB from effects of the enclosing material, i.e. the pea protein, participants have also ingested empty microbeads on one trial day.

[2] = Tolerability of βHB, Example 3 trial; conditions: about 18 g dose
Excerpt: as §1, §2

[3] = Glucose blood plasma levels, Example 3 trial; type: in vivo, human; conditions: about 18 g βHB formulation; snack provided at 6 h; n=10
Protocol: Participants arrived at the laboratory between 7.30 and 9.00 after an overnight fast, and provided a urine sample for hydration assessment (PEN Refractometer, Atago Instruments). Next, a fasting blood sample was taken via a cannula inserted into a superficial forearm vein for serial blood sampling. After providing a “fasting” blood sample, participants ingested a 250 mL lemon flavored non-caloric water drink wherein the 18 g dose of a microbead comprising the βHB formulation was suspended. After supplementation, baseline determinations tests were repeated for comparison between the pre- and post-supplementation periods. Every 30 min for three hours after ingestion, a blood sample was taken. After 3 hours, a blood sample was taken at 1-hour intervals. After 8 hours, a blood sample was taken at 2-hour intervals. Participants remained in the lab at quiet rest throughout this time period and were permitted to use entertainment headsets and the digital library and were allowed make short walks outside. Participants were offered some small snack 6 hours after consumption of the prototype drink which they could choose from low caloric yoghurts, muesli bars and low caloric fruit juices. […] The blood samples were, at least for the determination of AcAc levels, directly analyzed within 2 hours (or otherwise stored at −80° C. before analysis). […]

[4] = βHB blood plasma concentration after 18 g βHB in microbeads or free (Example 3 cross-over trial); type: in vivo, human; conditions: n=10
Excerpt: A dose of βHB contained in microbeads was 20 g of microbeads containing a mix of 50% R-3-hydroxybutyrate mineral salts (Na/Ca/K/Mg Blend 1:1:1:2) and 50% R-3-hydroxybutyric acid (βHB formulation). In particular, said βHB formulation was enriched in pockets dispersed throughout a polymerized yellow pea protein matrix of the microbead particles and constituted approximately 89 to 90% of the weight of the microbead. Thus, the βHB formulation comprised in said dose was about 18 g, in particular about 17.8 g.
The dose of non-enclosed (free) βHB was also about 18 g, in particular about 17.8 g, and the dose of empty microbeads was about 2 g, in particular about 2.2 g. Thus, the free βHB and empty microbeads were direct controls of the composition comprising βHB contained in microbeads.
For administration, one dose was suspended in 250 ml of lemon-flavored non-caloric water.
Participants arrived at the laboratory between 7.30 and 9.00 after an overnight fast, and provided a urine sample for hydration assessment (PEN Refractometer, Atago Instruments). Next, a fasting blood sample was taken via a cannula inserted into a superficial forearm vein for serial blood sampling. After providing a “fasting” blood sample, participants ingested a 250 mL lemon flavored non-caloric water drink wherein the 18 g dose of a microbead comprising the βHB formulation was suspended. After supplementation, baseline determinations tests were repeated for comparison between the pre- and post-supplementation periods. Every 30 min for three hours after ingestion, a blood sample was taken. After 3 hours, a blood sample was taken at 1-hour intervals. After 8 hours, a blood sample was taken at 2-hour intervals. Participants remained in the lab at quiet rest throughout this time period and were permitted to use entertainment headsets and the digital library and were allowed make short walks outside. […] The blood samples were, at least for the determination of AcAc levels, directly analyzed within 2 hours (or otherwise stored at −80° C. before analysis). […]

[5] = about 18 g βHB formulation oral

## C[C@@H](O)CC(=O)O [free βHB, R-3-hydroxybutyric acid]
[1]
  tolerability of the dose: poorly tolerated
[2]; of 10 participants
  participants expressing mild nausea: 4 participants
  participants expressing severe discomfort and sickness: 3 participants
[2]; within the first hour upon ingestion
  participants reporting gastrointestinal distress (stomach cramping, upset, nausea, bloating, diarrhea): 7 of 10 participants
[3]
  blood glucose levels upon ingestion: not altered for at least 4 hours
[4]; about 18 g βHB formulation oral in 250 ml lemon-flavored water, first measurement time-point
  average plasma βHB concentration at peak: 1.5 mM
[4]; [5]
  time within which plasma βHB concentration dropped to baseline levels: ≤ 2 h
  time-point of peak average plasma βHB concentration: 0.5 h

— patent US20220257546A1, “KETONE BODIES ENCLOSED IN MICROBEADS” (Ketoswiss AG, priority 2019, published 2022)
